The results in this text go back to patent US6514997B2, “Antipicornaviral compounds and compositions, their pharmaceutical uses, and materials for their synthesis” (Agouron Pharmaceuticals, Inc., priority 1999, dated 2003).

Series [1] addresses T1, Recombinant rhinovirus 3C protease, serotype 14 (Human rhinovirus 14, UniProt P03303).
T1 construct: Recombinant rhinovirus 3C proteases; made in house
In words: Inhibition of rhinovirus 3C protease (FRET assay, kobs/[I]), serotype 14. The format is biochemical. The settings on record: for kinact/KI: pH 7.6, read-out: kobs/[I] (3C protease inhibition activity). As to the method:
Inhibition of Rhinovirus 3C Protease:
Stock solutions (50 mM, in DMSO) of various compounds were prepared; dilutions were in the same solvent. Recombinant rhinovirus 3C proteases (see Birch et al., “Purification of recombinant human rhinovirus 14 3C protease expressed in Escherichia coli,” Protein Expr. Pur. (1995), vol. 6(5), 609-618) from serotypes 14, 16, and 2 were prepared by the following standard chromatographic procedures: (1) ion exchange using Q Sepharose Fast Flow from Pharmacia; (2) affinity chromatography using Affi-Gel Blue from Biorad; and (3) sizing using Sephadex G-100 from Pharmacia. Each assay sample contained 2% DMSO, 50 mM tris pH 7.6, 1 mM EDTA, a test compound at the indicated concentration, approximately 1 μM substrate, and 50-100 nM protease. The kobs/I values were obtained from reactions initiated by addition of enzyme rather than substrate. RVP activity was measured in the fluorescence resonance energy transfer assay. The substrate was (N-terminal) DABCYL-([…]-EDANS. In the uncleaved peptide, the EDANS fluorescence was quenched by the proximal DABCYL moiety. When the peptide was cleaved, the quenching was relieved, and activity was measured as an increase in fluorescence signal. The tabulated data in the column designated kobs/[I] were measured from progress curves in enzyme start experiments.

A further series relates to HRV-14. Description: Antirhinoviral H1-HeLa cell culture assay (XTT cell protection, EC50), HRV-14. The format is cell-based, human rhinovirus (HRV) serotype-14 in H1-HeLa cells. As to the method:
(§1) Antirhinoviral H1-HeLa Cell Culture Assay:
(§2) In this cell protection assay, the ability of compounds to protect cells against HRV infection was measured by the XTT dye reduction method, which is described in Weislow et al., J. Natl. Cancer Inst. […] H1-HeLa cells were infected with HRV-14 at a multiplicity of infection (m.o.i.) of 0.13 (virus particles/cell) or mock-infected with medium only. Infected or mock-infected cells were resuspended at 8×10^5 cells per mL, and incubated with appropriate concentrations of the compounds to be tested. Two days later, XTT/PMS was added to test plates and the amount of formazan produced was quantified spectrophotometrically at 450/650 nm. […] The therapeutic index (TI) was calculated by dividing the CC50 value by the EC50 value.
(§3) All strains of human rhinovirus (HRV) for use in this assay were purchased from American Type Culture Collection (ATCC), except for HRV serotype-14 (produced from the infectious cDNA clone constructed by Dr. Robert Rueckert, Institute for Molecular Virology, University of Wisconsin, Madison, Wis.). HRV stocks were propagated and viral assays were performed in H1-HeLa cells (ATCC). Cells were grown in minimal essential medium with 10% fetal bovine serum, available from Life Technologies (Gaithersburg, Md.).
On the technique in general: Tetrazolium assays rely on reduction of a dye to a coloured formazan, in cell work by metabolically active cells.

Series [2] has as its system strains of human rhinovirus (HRV). In words: Antirhinoviral H1-HeLa cell culture assay (XTT cell protection, EC50), other HRV strains. The class given is cell-based, human rhinovirus in H1-HeLa cells. As to conditions: read-out: EC50. The procedure: as §1
In this cell protection assay, the ability of compounds to protect cells against HRV infection was measured by the XTT dye reduction method, which is described in Weislow et al., J. Natl. Cancer Inst. (1989), vol. 81, 577-586. H1-HeLa cells were infected with HRV-14 at a multiplicity of infection (m.o.i.) of 0.13 (virus particles/cell) or mock-infected with medium only. Infected or mock-infected cells were resuspended at 8×10^5 cells per mL, and incubated with appropriate concentrations of the compounds to be tested. Two days later, XTT/PMS was added to test plates and the amount of formazan produced was quantified spectrophotometrically at 450/650 nm. […] The therapeutic index (TI) was calculated by dividing the CC50 value by the EC50 value.
as §3

The next series has as its system H1-HeLa cells. Description: Cytotoxicity (CC50) in mock-infected H1-HeLa cells, XTT dye reduction. The format is cell-based, human. As to the method: as §2, §3
(§4) Coxsackievirus types A-21 (CAV-21) and B3 (CVB3) were purchased from American Type Culture Collection (ATCC, Rockville, Md.). Virus stocks were propagated and antiviral assays were performed in H1-HeLa cells (ATCC). Cells were grown in minimal essential medium with 10% fetal bovine serum (Life Technologies, Gaithersburg, Md.). The ability of the compounds of this invention to protect cells against either CAV-21 or CVB3 infection was measured by the XTT dye reduction method. This method is described in Weislow et al., J. Natl. Cancer Inst. […] H1-HeLa cells were infected with CAV-21 or CVB3 at a multiplicity of infection (m.o.i.) of 0.025 or 0.075, respectively, or mock-infected with medium only. H1-HeLa cells were plated at 4×10^4 cells per well in a 96-well plate and incubated with appropriate concentrations of the test compound. One day (CVB3) or two days (CAV-21) later, XTT/PMS was added to test plates and the amount of formazan produced was quantified spectrophotometrically at 450/650 nm. […] The therapeutic index (TI) was calculated by dividing the CC50 by the EC50.

Test in series [3]: as above
The class given is cell-based, human. As to conditions: human, H1-HeLa cells, mock-infected; line of HRV-14. As to the method: as §2, §3, §4

Molecules are shown by their SMILES. Like-named read-outs stand apart in the source and are kept apart here. Bounds are passed on as bounds.

T1 sequence (P03303 1538-1719): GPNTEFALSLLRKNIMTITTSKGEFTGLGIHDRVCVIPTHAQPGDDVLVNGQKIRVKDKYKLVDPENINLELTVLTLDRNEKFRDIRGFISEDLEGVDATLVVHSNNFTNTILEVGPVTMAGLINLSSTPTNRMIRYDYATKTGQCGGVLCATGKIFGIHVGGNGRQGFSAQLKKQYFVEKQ

As to `Cc1cc(C(=O)Nc2cccn(C(Cc3ccc(F)c(F)c3)C(=O)N[C@H](/C=C/C(=O)OCC(C)(C)C)C[C@@H]3CCNC3=O)c2=O)no1` (relative stereo) [Compound 47, trans-(2′S,3″″″S,4S)-4-[3′-(3″,4″-Difluorophenyl)-2′-(3′″-{[1″″-(5′″″-methylisoxazol-3′″″-yl)methanoyl]amino}-2″″-oxo-2″″H-pyridin-1″″-yl)propanoylamino]-5-(2″″″-oxopyrrolidin-3″″″-yl)pent-2-enoic Acid 2,2-Dimethylpropyl Ester], in series [1] (HRV-14), the “kobs/[I] (3C protease inhibition activity)” value is listed as 1,400,000 M^−1s^−1. In addition, the EC50 (usually the concentration needed to bring the measured effect to its halfway point) was determined as 40 nM in the series with HRV-14 (HRV-14, read-out: EC50); 148 nM in series [2] (HRV-1A); 133 nM in series [2] (HRV-2); 18 nM in series [2] (HRV-3); 121 nM in series [2] (HRV-9); 114 nM in series [2] (HRV-10). The results for the EC50 in series [2] (HRV-16), in series [2] (HRV-25) and in series [2] (HRV-39) were 49 nM, 193 nM and 168 nM, respectively. Further, the 50% cytotoxic concentration (CC50) with H1-HeLa cells (line of HRV-1A), in the series with H1-HeLa cells (line of HRV-2), in the series on H1-HeLa cells (line of HRV-3), with H1-HeLa cells (line of HRV-9), in the series on H1-HeLa cells (line of HRV-10) and with H1-HeLa cells (line of HRV-14) was above 10000 nM each time. Moreover, the CC50 in the series with H1-HeLa cells (line of HRV-16), in the series with H1-HeLa cells (line of HRV-25) and in the series on H1-HeLa cells (line of HRV-39) was above 10000 nM in each case.
Consider `Cc1cc(C(=O)Nc2ccc3n(c2=O)[C@H](C(=O)N[C@H](/C=C2\CCOC2=O)C[C@@H]2CCNC2=O)CC3)no1` [Compound 38, trans-(2″S,3S,3′″S)-6-[(5′-Methylisoxazole-3′-carbonyl)amino]-5-oxo-1,2,3,5-tetrahydroindolizine-3-carboxylic Acid [2″-(2′″-oxodihydrofuran-3′″-ylidene)-1″-(2″″-oxopyrrolidin-3″″-ylmethyl)ethyl]amide], for which, in the series on HRV-14 (Rhinovirus B, HRV14, H1-HeLa, HRV-14, read-out: EC50), the EC50 is 16800 nM. Moreover, the CC50 (usually the concentration at which the toxic effect on the cells reaches its halfway point) at 2 days in series [3] is above 100000 nM.
As to `CCOC(=O)/C=C/[C@H](C[C@@H]1CCNC1=O)NC(=O)[C@H](Cc1ccccc1)N1CCc2c(C)c[nH]c2C1=O` [Compound 45, 4S-[2S-(3-Methyl-7-oxo-1,4,5,7-tetrahydro-pyrrolo[2,3-c]pyridin-6-yl)3-phenyl-propionylamino]-5-(2-oxo-pyrrolidin-3-yl)pent-2(trans)-enoic acid ethyl ester], the kinact/KI in series [1] (HRV-14) was 673 M⁻¹ s⁻¹.
On to `Cc1cc(CCCCCCCOc2ccc(C3=NCCO3)cc2)on1` [WIN 51711, reference compound], for which, in the series on HRV-14 (HRV-14, read-out: EC50), the concentration for a half-maximal effect (EC50) was 780 nM. The compound also returned a CC50 in the series with H1-HeLa cells (HRV-14) above 60000 nM.
Consider `Cc1cc(C(=O)Nc2cccn([C@@H](Cc3ccc(F)c(F)c3)C(=O)N[C@H](/C=C/C(=O)O)C[C@@H]3CCNC3=O)c2=O)no1` [Compound 51, trans-(2′S,3″″″S,4S)-4-[3′-(3″,4″-Difluorophenyl)-2′-(3′″-{[1″″-(5′″″-methylisoxazol-3′″″-yl)methanoyl]amino}-2″″-oxo-2″″H-pyridin-1″″-yl)propanoylamino]-5-(2″″″-oxopyrrolidin-3″″″-yl)pent-2-enoic Acid], for which the EC50 in the series on HRV-14 (Rhinovirus B, HRV14, H1-HeLa) was above 10000 nM; in series [2] (Human rhinovirus sp., HRV9, H1-HeLa, HRV-9) it was above 1000 nM; in series [2] (Human rhinovirus sp., HRV16, H1-HeLa, HRV-16) it was above 10000 nM; in series [2] (Human rhinovirus sp., HRV25, H1-HeLa, HRV-25), above 10000 nM. In series [3], the CC50 at 2 days is above 10000 nM. In addition, the half-maximal cytotoxic concentration (CC50) in the series on H1-HeLa cells (line of HRV-9), in the series on H1-HeLa cells (line of HRV-16) and in the series on H1-HeLa cells (line of HRV-25) was above 10000 nM in each case.
As for `Cc1cc(CCCCCCCOc2ccc(C3=N[C@@H](C)CO3)cc2)on1` [WIN 52084, reference compound], the EC50 with HRV-14 (HRV-14, read-out: EC50) came to 70 nM. Also, the CC50 in the series with H1-HeLa cells (HRV-14) was above 10000 nM.
`CC[C@@H](C(=O)N[C@H](/C=C/C(=O)OC1CCCCCC1)C[C@@H]1CCNC1=O)n1cccc(NC(=O)c2cc(C)on2)c1=O` [Compound 61, trans-(2′S,3′″″S,4S)-4-[2′-(3″-{[1′″-(5″″-Methylisoxazol-3″″-yl)methanoyl]amino}-2′″oxo-2′″H-pyridin-1′″-yl)butanoylamino]-5-(2′″″-oxopyrrolidin-3′″″-yl)pent-2-enoic Acid Cycloheptyl Ester]: the kinact/KI in series [1] (HRV-14 3C protease) amounted to 15000 M⁻¹ s⁻¹.
For the compound `CCOC(=O)/C=C/[C@H](C[C@@H]1CCNC1=O)NC(=O)[C@H](CC)n1cc(C(F)(F)F)cc(NC(=O)c2cc(C)on2)c1=O` [Compound 68, trans-(2′S,3″″S,4S)-4-[2′-({[1″-(5′″-Methylisoxazol-3′″-yl)methanoyl]amino}-oxotrifluoromethyl-2″H-pyridin-1″-yl)butanoylamino]-5-(2″″-oxopyrrolidin-3″″-yl)pent-2-enoic Acid Ethyl Ester], the kinact/KI in series [1] (HRV-14 3C protease) is 39500 M⁻¹ s⁻¹.
For `CCOC(=O)/C=C/[C@H](C[C@@H]1CCNC1=O)NC(=O)[C@@H](Cc1ccccc1)n1ccc2cc[nH]c2c1=O` [Compound 4], in series [1] (HRV-14), the kinact/KI was 574 M⁻¹ s⁻¹.
As to `CCOC(=O)/C=C/[C@H](CCC(N)=O)NC(=O)[C@H](Cc1ccc(F)cc1)n1cccc(NC(=O)C(F)(F)F)c1=O` [Compound 24, trans-(2′S,4S)-6-Carbamoyl-4-{3′-(4″-fluorophenyl)-2′-[2′″-oxo-3′″-(2″″,2″″,2″″-trifluoroacetylamino)-2′″H-pyridin-1′″-yl]propionylamino}hex-2-enoic Acid Ethyl Ester], the kinact/KI in series [1] (HRV-14) was 8800 M⁻¹ s⁻¹.
